Data from patent publication US10463669B2, “Composition for treating or preventing liver cancer” (Seoul National University R&DB Foundation, priority 2016, dated 2019).

Legend:
Hep3B cells = test: Cell proliferation / cell viability, MTS assay; format: cell-based; conditions: Homo sapiens, treated for 96 hours
Experimental: (§1) HCC cell lines (Huh7 and Hep3B) were obtained from Korean Cell Line Bank (KCLB, Seoul, Korea). THLE-3 cell line (immortalized human liver […] cell line produced by infection with SV40 large T antigen) was obtained from ATCC (American Type Culture Collection). Cell line authentication by KCLB and ATCC was carried out by using DNA fingerprinting as a short tandem repeat analysis. All cell lines were tested for mycoplasma contamination. HCC cells were cultured in DMEM (Welgene, Gyeongsan-si, Korea) medium complemented with 10% fetal bovine serum (GenDepot, Barker, Tex., USA) in a humidified 5% CO2 incubator at 37° C. As it has been recommended by the ATCC manual, THLE-3 cells were cultured in BEGM (Lonza) medium complemented with 10% fetal bovine serum in a humidified 5% CO2 incubator at 37° C.
(§2) As it has been described before (10), the cell viability was measured by using Cell Titer 96 MTS (Promega). Cells were sewn in an amount of 500 to 1000 cells per well, and then treated for 96 hours at a pharmaceutical concentration as described in each graph. Each analysis was repeated 3 times at least. After plotting the data, IC50 values were obtained by using GraphPad software. By using Flexstation 3 multimode plate reader (Molecular Devices), optical density showing formazan production was measured at 490 nm. […]

Huh7 cells = test: Cell proliferation / cell viability, MTS assay; format: cell-based; conditions: Homo sapiens, Huh-7, treated for 96 hours
Experimental: as §1, §2

[1] = system: telomerase activity in HCC cell lines (Huh7 and Hep3B); test: Telomerase activity, TRAP assay; format: cell-based, human
Experimental: (§3) To have quantitative determination of the telomerase activity, TRAP assay was carried out by using TRAPEZE® RT Telomerase Detection Kit (Millipore, Darmstadt, Germany; […]). According to the manual, the whole protein extract (100 ng) was used for each reaction.

[2] = system: telomerase activity in THLE-3 cells; test: Telomerase activity, TRAP assay; format: cell-based, human; conditions: 150 μmol/L H2O2-treated THLE-3 cells
Experimental: as §3

[3] = system: β-catenin and SetD1A binding to the TERT promoter in Huh7 cells; test: Chromatin immunoprecipitation (ChIP) at the TERT promoter; format: cell-based, human; conditions: HCC (Huh7) cells, with or without 300 μmol/L H2O2
Experimental: As it has been described before (Lim S O, et al. Gastroenterology. 2008; 135: 2128-40, 40 el-8.; Hoffmeyer K, et al. Science. 2012; 336: 1549-54.), several modified ChIP (chromatin immunoprecipitation) tests were carried out. In the presence or absence of a PI3K inhibitor, an AKT inhibitor, or a GSK3β inhibitor, Huh7 cells were cultured for 4 days with or without a treatment of 300 μmol/L H2O2. Under mild shaking for 20 minutes at room temperature, the cells were fixed by using 1% paraformaldehyde. After that, the cells were rinsed twice with ice-cold PBS; resuspended with 400 μL of micrococcal nuclease buffer (50 mmol/L TrisHCl [pH 8.0], 5 mmol/L CaC12, 100 μg/mL BSA, 10 mmol/L KCl, and protease inhibitor cocktail [Roche, Basel, Switzerland; 4693159001]); and disrupted with 2 mm-diameter zirconium beads (Watson); to have micrococcal nuclease digestion (New England Biolabs, Beverly, Mass., USA; M0247S). Chromatin (150 μg) was collected and diluted in a dilution buffer (0.1% NP-40, 2 mmol/L EDTA, 150 mmol/L NaCl, 20 mmol/L TrisHCl [pH 8.0], protease inhibitor cocktail [Roche]), and a phosphatase inhibitor cocktail [Calbiochem]), and then subjected to pre-clearing with 2 μg digested salmon sperm DNA, 10 μL preimmune serum (Santa Cruz Biotechnology; sc-2027), and Dynabeads Protein G (Life Technologies; 1004D) for 2 hours at 4° C. After the immunoprecipitation, 20 μL of Dynabeads Protein G were added thereto and the culture was continued for 2 hours. The Dynabeads were washed continuously for 10 minutes with TSE 1 (0.1% SDS, 1% Triton X-100, 2 mmol/L EDTA, 20 mmol/L TrisHCl, and 150 mmol/L NaCl), TSE II (0.1% SDS, 1% Triton X-100, 2 mmol/L EDTA, 20 mmol/L TrisHCl, and 500 mmol/L NaCl), and buffer III (0.25 mol/L LiCl, 1% NP-40, 1% deoxycholate, 1 mmol/L EDTA, and 10 mmol/L TrisHCl). After that, the beads were washed 3 times with TE buffer, and extraction was made by using 1% SDS and 0.1 mol/L NaHCO3. To have reverse formaldehyde cross-linking, the elution solution was heated overnight at 65° C. By using NucleoSpin DNA clean-up kit, DNA debris were purified. By using primers specific to the TERT promoter region, the PCR amplified product was quantified by qPCR (ABI 7300; Applied Biosystems, Foster City, Calif., USA). The PCR amplification was normalized against the TERT intron. The primer sequences are as follows: β-catenin interaction site for ChIP (forward primer: TCCCGGGTCCCCGGCCCA (SEQ ID NO:8); reverse primer: […] (SEQ ID NO:9)) and TERT intron for ChIP (forward primer: […] (SEQ ID NO:10); reverse primer: […] (SEQ ID NO:11)). For each of the β-catenin interaction site which has been recorded before, 20-22 bp were added. The antibodies that are used are as follows: rabbit polyclonal anti-β-catenin (1:200, Abcam, Cambridge, Mass., USA; ab6302), mouse monoclonal anti-RNA polymerase II (1:50, Covance, Princeton, N.J., USA; MMS-126R), and rabbit polyclonal anti-SETD1A (1:100, Novus Biologicals, Littleton, Colo., USA; NBP1-81513).
Inventors of the present invention made an investigation to see whether or not the increased chromatin accessibility in TERT promoter during TERT transcription is related with β-catenin. To do so, by using intrinsic β-catenin and an antibody against histone methyl transferase SetD1A which has been reported to promote the TERT transcription based on chromatin remodeling, chromatin immunoprecipitation was carried out. When a PI3K or AKT inhibitor is treated together for chromatin immunoprecipitation, β-catenin and SetD1A, which bind to the TERT promoter in HCC cells, were reduced even in the presence of H2O2 (FIGS. 3A and 3B). However, when the treatment is carried out also with a GSK3p inhibitor, increased binding of β-catenin and SetD1A was shown regardless of a treatment with H2O2 (FIG. 3C).

For `CC[C@H](Nc1ncnc2nc[nH]c12)c1nc2cccc(F)c2c(=O)n1-c1ccccc1` [idelalisib, 5-fluoro-3-phenyl-2-[(1S)-1-(7H-purin-6-ylamino)propyl]-4(3H)-quinazolinone], the IC50 (Hep3B cells) was less than 30 µM, the IC50 (Huh7 cells) was less than 30 µM and the telomerase activity ([1]; 300 μmol/L H2O2-treated HCC cell lines) was “reduced”. The “ROS-mediated increase in telomerase activity” value ([1]; H2O2-treated cells) was “almost completely inhibited”, the telomerase activity [2] was “not” and the “SetD1A binding to the TERT promoter” value [3] was “reduced”. The “β-catenin binding to the TERT promoter” value [3] was “reduced”.
